Measurements: paper PMC9014410, “Discovery of V-0219: A Small-Molecule Positive Allosteric Modulator of the Glucagon-Like Peptide-1 Receptor toward Oral Treatment for “Diabesity”” (Journal of Medicinal Chemistry, 2022)

Target: hGLP-1R (Homo sapiens, UniProt P43220)
Assay: cAMP accumulation in HEK-293 cells expressing hGLP-1R (HEK-GLP-1 cells)
Type: cell-based
Conditions: HEK293, read-out: Potentiation of GLP-1 Emax at 10 ?M in a cAMP assay (%); 10 ?M compound (supplementary csv)
Method: After this time the culture medium was replaced by 20 μL fresh Opti-MEM containing 500 μM IBMX and 100 μM K579 and incubated with gentle stirring for 10 min at rt. […] Concentration-response curves were fitted to a 4-parameter logistic equation by using GraphPad Prism 2.1 software.

Sequence of hGLP-1R (P43220 24-463): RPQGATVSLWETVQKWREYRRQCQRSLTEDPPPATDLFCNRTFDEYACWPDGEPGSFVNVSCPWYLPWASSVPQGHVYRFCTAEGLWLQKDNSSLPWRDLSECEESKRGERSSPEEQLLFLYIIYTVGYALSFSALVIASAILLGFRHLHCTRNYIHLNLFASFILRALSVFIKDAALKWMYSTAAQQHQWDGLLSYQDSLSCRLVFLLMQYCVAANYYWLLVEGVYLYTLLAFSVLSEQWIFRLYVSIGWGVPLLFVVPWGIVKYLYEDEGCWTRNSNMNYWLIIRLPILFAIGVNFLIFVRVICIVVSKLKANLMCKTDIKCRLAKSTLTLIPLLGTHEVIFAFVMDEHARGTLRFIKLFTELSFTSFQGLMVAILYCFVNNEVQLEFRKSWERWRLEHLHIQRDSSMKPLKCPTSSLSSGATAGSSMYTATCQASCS

| Emax | Compound |
| --- | --- |
| < 30% | CS(=O)(=O)NC(=O)CC1CCN(Cc2nc(-c3ccc(C(F)(F)F)cc3)no2)CC1 [S52] |
| < 30% | CCCS(=O)(=O)NC(=O)CC1CCN(Cc2nc(-c3ccc(C(F)(F)F)cc3)no2)CC1 [S53] |
| < 30% | Clc1ccccc1-c1noc(CN2CCCC(CN3CCOCC3)C2)n1 (stereo not shown) [S79] |
| < 30% | FC(F)(F)c1ccccc1-c1noc(CN2CCCC(CN3CCOCC3)C2)n1 (stereo not shown) [S65] |
| < 30% | COc1ccc(Br)cc1S(=O)(=O)NC(=O)CC1CCN(Cc2nc(-c3ccc(C(F)(F)F)cc3)no2)CC1 [S64] |
| < 30% | Cc1ccccc1-c1noc(CN2CCCC(CN3CCOCC3)C2)n1 (stereo not shown) [S67] |
| < 30% | O=C(CC1CCN(Cc2nc(-c3ccc(C(F)(F)F)cc3)no2)CC1)NS(=O)(=O)Cc1ccccc1 [S54] |
| < 30% | COc1ccc(S(=O)(=O)NC(=O)CC2CCN(Cc3nc(-c4ccc(C(F)(F)F)cc4)no3)CC2)cc1 [S61] |
| < 30% | COc1ccc(S(=O)(=O)NC(=O)C2CCN(Cc3nc(-c4ccc(C(F)(F)F)cc4)no3)CC2)cc1 [S48] |
| < 30% | NC(=O)c1cccc(-c2noc(CN3CCCC(CN4CCOCC4)C3)n2)c1 (stereo not shown) [S84] |
| < 30% | Clc1cccc(-c2noc(CN3CCCC(CN4CCOCC4)C3)n2)c1 (stereo not shown) [S80] |
| < 30% | COC(=O)c1cccc(-c2noc(CN3CCCC(CN4CCOCC4)C3)n2)c1 (stereo not shown) [S82] |
| < 30% | CNC(=O)c1cccc(-c2noc(CN3CCCC(CN4CCOCC4)C3)n2)c1 (stereo not shown) [S86] |
| < 30% | Cc1cccc(-c2noc(CN3CCCC(CN4CCOCC4)C3)n2)c1 (stereo not shown) [S68] |
| < 30% | CNc1cccc(-c2noc(CN3CCCC(CN4CCOCC4)C3)n2)c1 (stereo not shown) [S74] |
| < 30% | Fc1ccccc1-c1noc(CN2CCCC(CN3CCOCC3)C2)n1 (stereo not shown) [S76] |
| < 30% | O=C(CC1CCN(Cc2nc(-c3ccc(C(F)(F)F)cc3)no2)CC1)NS(=O)(=O)c1cccc(F)c1 [S56] |
| < 30% | O=C(CC1CCN(Cc2nc(-c3ccc(C(F)(F)F)cc3)no2)CC1)NS(=O)(=O)c1cccc(Cl)c1 [S58] |
| < 30% | O=C(CC1CCN(Cc2nc(-c3ccc(C(F)(F)F)cc3)no2)CC1)NS(=O)(=O)c1ccc(F)cc1 [S57] |

The next lines start with the compound.

| Compound | Emax |
| --- | --- |
| N#Cc1cccc(S(=O)(=O)NCC2CCN(Cc3nc(-c4ccc(C(F)(F)F)cc4)no3)CC2)c1 [S26] | < 30% |
| O=C(NS(=O)(=O)c1ccc(F)cc1)C1CCN(Cc2nc(-c3ccc(C(F)(F)F)cc3)no2)CC1 [S43] | < 30% |
| O=S(=O)(NC1CCN(Cc2nc(-c3ccc(C(F)(F)F)cc3)no2)CC1)c1ccc(Cl)cc1 [S11] | < 30% |
| COc1ccc(Br)cc1S(=O)(=O)NC1CCN(Cc2nc(-c3ccc(C(F)(F)F)cc3)no2)CC1 [S18] | < 30% |
| N#Cc1ccc(S(=O)(=O)NCC2CCN(Cc3nc(-c4ccc(C(F)(F)F)cc4)no3)CC2)cc1 [S27] | < 30% |
| O=S(=O)(NCC1CCN(Cc2nc(-c3ccc(C(F)(F)F)cc3)no2)CC1)c1ccc(F)cc1 [S32] | < 30% |
| COc1ccc(S(=O)(=O)NCC2CCN(Cc3nc(-c4ccc(C(F)(F)F)cc4)no3)CC2)cc1 [S34] | < 30% |
| O=S(=O)(Cc1ccccc1)NC1CCN(Cc2nc(-c3ccc(C(F)(F)F)cc3)no2)CC1 [S3] | < 30% |
| O=[N+]([O-])c1ccc(S(=O)(=O)NC2CCN(Cc3nc(-c4ccc(C(F)(F)F)cc4)no3)CC2)cc1 [S6] | < 30% |
| CCCS(=O)(=O)NC1CCN(Cc2nc(-c3ccc(C(F)(F)F)cc3)no2)CC1 [S2] | < 30% |
| O=S(=O)(NCC1CCN(Cc2nc(-c3ccc(C(F)(F)F)cc3)no2)CC1)c1ccc(Cl)cc1 [S30] | < 30% |
| N#Cc1ccc(S(=O)(=O)NC2CCN(Cc3nc(-c4ccc(C(F)(F)F)cc4)no3)CC2)cc1 [S9] | < 30% |
| O=C(NS(=O)(=O)c1ccccc1Cl)C1CCN(Cc2nc(-c3ccc(C(F)(F)F)cc3)no2)CC1 [S44] | < 30% |
| O=[N+]([O-])c1ccccc1S(=O)(=O)NCC1CCN(Cc2nc(-c3ccc(C(F)(F)F)cc3)no2)CC1 [S24] | < 30% |
| CCCS(=O)(=O)NCC1CCN(Cc2nc(-c3ccc(C(F)(F)F)cc3)no2)CC1 [S21] | < 30% |
